Results as given in ChEMBL document CHEMBL1255199, “Endochin optimization: structure-activity and structure-property relationship studies of 3-substituted 2-methyl-4(1H)-quinolones with antimalarial activity” (J Med Chem, 2010).
Converted amounts (≈) assume the structure as drawn.

Assays:
[1] = test system: Plasmodium falciparum; assay: Antimalarial activity against chloroquine, mefloquine, pyrimethamine and atovaquone-resistant Plasmodium falciparum TM90-C2B infected in human A+ erythrocytes after 72 hrs by SYBR Green I assay; type: functional, organism-based
[2] = test system: Plasmodium falciparum; assay: Antimalarial activity against chloroquine and pyrimethamine-resistant Plasmodium falciparum W2 infected in human A+ erythrocytes after 72 hrs by SYBR Green I assay; type: functional, organism-based; settings: W2, 72 h
[3] = test system: J774; assay: Cytotoxicity against mouse J774 cells; type: cell-based
[4] = Lipophilicity, log D of the compound at pH 7.4; settings: buffer
[5] = Passive transcellular permeability of the compound at pH 7.4 by PAMPA; type: ADME; settings: read-out: permeability
[6] = Passive transcellular permeability of the compound at pH 4 by PAMPA; type: ADME; settings: for Papp: read-out: permeability
[7] = in vitro; settings: mouse, J774 cells
Description: Cytotoxicity index, ratio of EC50 for mice (Mus musculus) J774 cells to EC50 for chloroquine, mefloquine, pyrimethamine and atovaquone-resistant Plasmodium falciparum TM90-C2B

[8] = physchem; settings: aqueous, pH 7.4
Description: Aqueous solubility of the compound at pH 7.4 by HPLC analysis

[9] = Half life in mouse liver microsomes; type: ADME, Microsome
[10] = Half life in human liver microsomes; type: ADME, Microsome

Structure (SMILES) | EC50 [1] [nM] | EC50 [2] [nM] | EC50 [3] [nM] | logD [4] | Papp [5] [×10⁻⁶ cm/s] | Papp [6] [×10⁻⁶ cm/s] | selectivity ratio [7] | solubility [8] [µM] | permeability [6] [×10⁻⁶ cm/s] | half-life [9] [min] | half-life [10] [min]
Cc1[nH]c2cc(Cl)cc(Cl)c2c(=O)c1-c1ccccc1 | 3440 | 2150 | > 32900 | 2.72 | 320 | 460 | > 9.5 | 5 (≈ 1.52 µg/mL) | – | – | –
CCc1c(C)[nH]c2cc(OC)c(F)cc2c1=O | 161 | 368 | 9400 | 1.2 | 19.1 | – | 58.3 | < 2 | 22.9 | – | –
CCc1c(C)[nH]c2cc(OC)c(Cl)cc2c1=O | 27.6 | 48.2 | 19000 | 2.43 | 57.3 | 96.4 | 689 | 10 (≈ 2.52 µg/mL) | – | 28.4 | 33.8
CCc1c(C)[nH]c2cc(OC)c(Br)cc2c1=O | 36.3 | 179 | > 33900 | 1.7 | 75.1 | 81.9 | > 933 | 2 (≈ 0.592 µg/mL) | – | – | –
COc1cc2[nH]c(C)c(C)c(=O)c2cc1Cl | 27.3 | 56.6 | 12200 | 1.86 | 59.2 | 37 | 449 | 5 (≈ 1.19 µg/mL) | – | – | –
COc1cc2[nH]c(C)c(C(C)C)c(=O)c2cc1Cl | 194 | 112 | 21700 | 2.84 | 187 | 281 | 112 | > 20 | – | – | –
COc1cc2[nH]c(C)cc(=O)c2cc1Cl | 1860 | 3180 | > 44700 | 1.95 | 25.2 | 11.9 | > 24.1 | 2 (≈ 0.447 µg/mL) | – | 62.4 | 161
Cc1[nH]c2ccccc2c(=O)c1-c1ccccc1 | 538 | 711 | > 42500 | 2.02 | 33 | 16.6 | > 79.1 | > 20 | – | – | –
Cc1[nH]c2ccccc2c(=O)c1Cc1ccccc1 | 6200 | > 5010 | > 40100 | 1.93 | 102 | 110 | > 6.5 | 10 (≈ 2.49 µg/mL) | – | – | –
Cc1[nH]c2ccc(Br)cc2c(=O)c1Br | 339 | 1400 | > 31500 | 1.76 | 95.2 | 133 | > 92.9 | > 20 | – | – | –
Cc1[nH]c2ccc(Cl)cc2c(=O)c1Br | 126 | 845 | 21700 | 2.02 | 87.7 | 84.5 | 172 | 5 (≈ 1.36 µg/mL) | – | – | –
CCCCC#Cc1c(C)[nH]c2ccc(F)cc2c1=O | > 9640 | > 9640 | > 38600 | 5.64 | 495 | 314 | > 4 | 2 (≈ 0.515 µg/mL) | – | – | –
COc1cccc2[nH]c(C)c(-c3ccccc3)c(=O)c12 | 5080 | 8150 | > 37700 | 1.63 | 333 | 24.4 | > 7.4 | > 20 | – | – | –
Cc1[nH]c2cccc(Cl)c2c(=O)c1Cc1ccccc1 | 5260 | 630 | > 35200 | 2.65 | 251 | 244 | > 6.7 | 2 (≈ 0.568 µg/mL) | – | – | –
Cc1[nH]c2ccc(Cl)cc2c(=O)c1Cc1ccccc1 | 3280 | 2470 | > 35200 | 2.79 | 415 | 422 | > 10.7 | < 2 | – | – | –
Cc1[nH]c2cc(Cl)ccc2c(=O)c1Cc1ccccc1 | 15700 | 2170 | > 35200 | 2.69 | 392 | 341 | > 2.2 | < 2 | – | – | –
Cc1[nH]c2c(Cl)cccc2c(=O)c1Cc1ccccc1 | > 8810 | > 8810 | > 35200 | 2.78 | 412 | 430 | > 4 | 5 (≈ 1.42 µg/mL) | – | – | –
Cc1[nH]c2cccc(Cl)c2c(=O)c1-c1ccccc1 | 4740 | 5060 | > 37100 | 1.88 | 99.6 | 91 | > 7.8 | 10 (≈ 2.7 µg/mL) | – | – | –
Cc1[nH]c2ccc(Cl)cc2c(=O)c1-c1ccccc1 | 777 | 244 | > 37100 | 2.43 | 108 | 111 | > 47.7 | 5 (≈ 1.35 µg/mL) | – | – | –

Structure (SMILES) | EC50 [1] [nM] | EC50 [2] [nM] | EC50 [3] [nM] | logD [4] | Papp [5] [×10⁻⁶ cm/s] | Papp [6] [×10⁻⁶ cm/s] | selectivity ratio [7] | solubility [8] [µM] | permeability [6] [×10⁻⁶ cm/s] | half-life [9] [min] | half-life [10] [min]
Cc1[nH]c2c(Cl)cccc2c(=O)c1-c1ccccc1 | > 9270 | > 9270 | > 37100 | 2.6 | 165 | 158 | > 4 | 5 (≈ 1.35 µg/mL) | – | – | –
Cc1[nH]c2ccc(Cl)c(Cl)c2c(=O)c1-c1ccccc1 | 3210 | 659 | > 32900 | 2.83 | 192 | 285 | > 10.2 | < 2 | – | – | –
Cc1[nH]c2c(Cl)cc(Cl)cc2c(=O)c1-c1ccccc1 | > 8220 | > 8220 | > 32900 | 3.32 | 232 | 162 | > 4 | < 2 | – | – | –
Cc1[nH]c2ccccc2c(=O)c1/C=C/C(=O)OC(C)(C)C | > 8350 | > 8350 | > 40000 | 2.34 | 124 | 105 | > 4.8 | > 20 | – | – | –
Cc1[nH]c2ccccc2c(=O)c1/C=C/c1cccc([N+](=O)[O-])c1 | 1490 | 4600 | > 32600 | 2.95 | 602 | 508 | > 21.9 | < 2 | – | – | –
Cc1[nH]c2ccccc2c(=O)c1/C=C/c1ccc(O)cc1 | > 9020 | > 9010 | > 36100 | 1.77 | 17 | 10.7 | > 4 | > 20 | – | – | –
COc1cccc2[nH]c(C)c(Cc3ccccc3)c(=O)c12 | 2110 | 6440 | 11200 | 2.11 | 158 | 69.8 | 5.33 | > 20 | – | – | –
COc1ccc2[nH]c(C)c(Cc3ccccc3)c(=O)c2c1 | 23700 | > 8950 | > 23700 | 2.53 | 188 | 167 | > 1 | 2 (≈ 0.559 µg/mL) | – | – | –
COc1ccc2c(=O)c(Cc3ccccc3)c(C)[nH]c2c1 | 1380 | 733 | > 35800 | 2.52 | 240 | 200 | > 25.9 | 5 (≈ 1.4 µg/mL) | – | – | –
COc1cccc2c(=O)c(Cc3ccccc3)c(C)[nH]c12 | > 5450 | > 2240 | > 35800 | 2.24 | 125 | 164 | > 6.5 | > 20 | – | – | –
COc1cc2[nH]c(C)c(-c3ccccc3)c(=O)c2cc1F | 83 | 167 | > 35300 | 1.72 | 124 | 192 | > 425 | 5 (≈ 1.42 µg/mL) | – | – | –
COc1cc2[nH]c(C)c(-c3ccccc3)c(=O)c2cc1Cl | 15.3 | 26.2 | > 33400 | 1.65 | 48.3 | 105 | > 2170 | 5 (≈ 1.5 µg/mL) | – | 21.3 | 128
COc1cc2[nH]c(C)c(-c3ccccc3)c(=O)c2cc1Br | 25 | 79.4 | > 29100 | 2.2 | 330 | 306 | > 1160 | < 2 | – | – | –
CCCCCCCc1c(C)[nH]c2cc(OC)c(Cl)cc2c1=O | 2.95 | 12.3 | > 37100 | < 3.83 | < 0.01 | < 0.01 | > 10500 | < 2 | – | – | –
COc1cc2[nH]c(C)c(C3CCCCC3)c(=O)c2cc1Cl | 397 | 237 | > 32700 | 3.04 | 630 | – | > 82.3 | 5 (≈ 1.53 µg/mL) | 1235.85 | – | –
C=C(CCCCC)c1c(C)[nH]c2cc(OC)c(Cl)cc2c1=O | 14.8 | 39.4 | 18900 | 3.58 | 755 | 768 | 1280 | 2 (≈ 0.64 µg/mL) | – | – | –
CCCCCCCc1c(C)nc2cc(OC)ccc2c1O | 46.6 | 8.59 | > 34800 | 3.69 | 679 | – | > 747 | 2 (≈ 0.575 µg/mL) | 1019.9 | 7.9 | 10.2
Cc1[nH]c2ccccc2c(=O)c1Br | 77.6 | 453 | > 42000 | 1.67 | 13.6 | 8.19 | > 542 | > 20 | – | – | –
